Data published in patent publication US20250255791A1, “POWDER COSMETIC CONTAINING ULTRAVIOLET WAVELENGTH-CONVERTING SUBSTANCE, AND METHOD FOR PRODUCING SAME” (Shiseido Company, Ltd., priority 2019, published 2025).

How the values were obtained:
Human dermal fibroblasts [1] = test: Experiment 2: influence of C-phycocyanin concentration and UV intensity on cell activity (AlamarBlue); assay type: cell-based; settings: UV 0-100 mJ/cm^2, FIG. 3
Experimental: (§1) A cell sample was prepared as follows: 1. Human dermal fibroblasts and human skin keratinocytes purchased from Kurabo Industries Ltd. were used. A cell suspension (1 mL) stored in liquid nitrogen was thawed in a water bath (37° C.) to an extent that small ice pellets remained, and then diluted with 9 mL of warm medium. 2. The diluted suspension was mixed gently and then transferred to a T75 flask and incubated overnight at 37° C. 3. The next day, the medium was replaced with 10 mL of fresh medium. 4. The medium was replaced periodically (once every 2 days for fibroblasts and once every 2 to 3 days for keratinocytes) and cell proliferation was continued. Meanwhile, the cells were observed using a microscope, and it was confirmed that the cells grew in the correct form. 5. After the cells reached about 80% confluence, the cells were passaged. The cells were passaged by washing the cells once with 10 mL of warm PBS, adding 5 mL of warm trypsin to a T75 flask, covering the bottom of the flask with a trypsin solution, followed by aspirating at room temperature for 1 minute. 6. The flask was allowed to stand in an oven at 37° C. for (maximum) 2 minutes for fibroblasts and (maximum) 7 minutes for keratinocytes. The cells were observed using a microscope and confirmed to be small and oval. 7. Thereafter, the side of the T75 flask was lightly tapped to release the cells. […]

Human dermal fibroblasts [2] = test: Experiment 3: restoration of cell activity decreased by prior UV irradiation (AlamarBlue); assay type: cell-based; settings: pre-irradiation 400 mJ/cm^2 without substance, then UV 0-200 mJ/cm^2 through 0.4% or 2% solution; FIG. 5
Experimental: as §1

## C-phycocyanin
Human dermal fibroblasts [1]; 0.4% C-phycocyanin solution
  cell activity (relative fluorescence intensity) on UV irradiation: the decrease in cell activity was suppressed
Human dermal fibroblasts [1]; 2% C-phycocyanin solution
  cell activity (relative fluorescence intensity) on UV irradiation versus no UV irradiation: the cell activity was even increased
Human dermal fibroblasts [2]
  cell activity of cells whose activity was once decreased by UV irradiation: cell activity was recovered
